Source: patent publication US6251882A, “Alkyl ketones as potent anti-cancer agents” (Parker Hughes Institute, priority 1999, dated 2001)

Experiments:
Molt-3 (T-lineage ALL) = experiment: MTT cytotoxicity assay, Molt-3; type: cell-based, human; conditions: MTT, 24-36 hours at 37° C., 0.1 to 250 μM
Procedure: (§1) Cytotoxicity of various compounds against tumor cells was performed using the MTT (3-[4,5-[…]]-2,5-diphenyl tetrazolium bromide) assay (Boehringer Mannheim Corp., Indianapolis, Ind.). Unless otherwise specified, all cell lines were obtained from the American Type Culture Collection (ATCC). Briefly, exponentially growing cells were seeded into a 96-well plate at a density of 2.5×10^4 cells/well and incubated for 36 hours at 37° C. prior to drug exposure. On the day of treatment, culture medium was carefully aspirated from the wells and replaced with fresh medium containing the indicated compound at concentrations ranging from 0.1 to 250 μM. Triplicate wells were used for each treatment.
(§2) Human leukemic cell lines (NALM-6, MOLT-3) glioblastoma cells (U373) and human breast tumor cell lines (BT20 and MDA-MB-231) were obtained from the American Type Culture Collection and maintained as a continuous cell line in Dulbecco's modified Eagles's medium supplemented with 10% fetal bovine serum and antibiotics.
(§3) The cells were incubated with the various compounds for 24-36 hours at 37° C. in a humidified 5% CO2 atmosphere. To each well, 10 μl of MTT (0.5 mg/ml final concentration) was added and the plates were incubated at 37° C. for 4 hours to allow MTT to form formazan crystals by reacting with metabolically active cells. The formazan crystals were solubilized overnight at 37° C. in a solution containing 10% SDS in 0.01 M HCl. The absorbence of each well was measured in a microplate reader (Labsystems) at 540 nm and a reference wavelength of […]. To translate the OD540 values into the number of live cells in each well, the OD540 values were compared to those on standard OD540 --versus--cell number curves generated for each cell line. The percent survival was calculated using the formula: [formula]
(§4) The IC50 values were calculated by non-linear regression analysis and are shown below in Tables 1-6.

BT-20 (breast cancer) = experiment: MTT cytotoxicity assay, BT-20; type: cell-based; conditions: Homo sapiens, 24-36 hours at 37° C., 0.1 to 250 μM
Procedure: as §1, §2, §3, §4

PC-3 (prostate cancer) = experiment: MTT cytotoxicity assay, PC-3; type: cell-based; conditions: 24-36 hours at 37° C., 0.1 to 250 μM
Procedure: as §1, §3, §4

U-373 (glioblastoma) = experiment: MTT cytotoxicity assay, U-373; type: cell-based; conditions: Homo sapiens, U373 MG, 24-36 hours at 37° C., 0.1 to 250 μM
Procedure: as §1, §2, §3, §4

primary leukemia cells = experiment: MTT cytotoxicity in primary cancer cells from six children with leukemia; type: cell-based, human; conditions: 0 to 50 μM, all six patients
Procedure: as §1
The cells were incubated with the various compounds for 24-36 hours at 37° C. in a humidified 5% CO2 atmosphere. […] The absorbence of each well was measured in a microplate reader (Labsystems) at 540 nm and a reference wavelength of 690 um. […] The percent survival was calculated using the formula: [formula]
The cytotoxicity of HI-131 against primary cancer cells was evaluated in leukemia cells taken from six children (FIG. 1A), using the MTT assay described for Example 3. […] Percent survival was calculated as described for Example 3 and plotted against the HI-131 concentration used in the experiment. […]

primary leukemic cells = experiment: Apoptosis induction, primary leukemic cells (in situ TUNNEL, confocal microscopy); type: cell-based, human
Procedure: (§5) The ability of HI-131 to induce apoptosis cells was evaluated in human leukemia in NALM-6 cells and primary leukemic cells from 2 patients. Cells were treated with 50 μM compound HI-131 for 24 hours. After incubation, the cells were harvested and analyzed for apoptosis by in situ TUNNEL analysis and confocal laser scanning microscopy as described in Sudbeck et al., 1999, Clin Cancer Res., 5:1589-82. Controls were treated with vehicle alone.
(§6) Induction of apoptosis was further evaluated in primary leukemic cells and established NALM-6 and MOLT-3 cell lines following treatment with HI-131.

MOLT-3 cells = experiment: Apoptosis induction, MOLT-3 cells; type: cell-based; conditions: Homo sapiens, MOLT-3, 24 h; vs vehicle control (FIG. 3)
Procedure: as §5, §6

[1] = test system: MDA-MB-231 breast cancer cells; experiment: Cell invasion assay (Matrigel-coated Boyden chambers), MDA-MB-231; type: cell-based, human; conditions: through Matrigel matrix, 2.5 μM to 25 μM, 48 hours (FIG. 4)
Procedure: (§7) The in vitro invasiveness of MDA-MB-231 breast cancer cells and U373 glioblastoma cells was assayed using a previously published method which employs Matrigel-coated Costar 24-well transwell cell culture chambers ("Boyden chambers") with 8.0-μm-pore polycarbonate filter inserts (Albini, et al., 1987, Cancer Res., 47:3239-3245). The chamber filters were coated with 50 μg/ml of Matrigel matrix, incubated overnight at room temperature under a laminar flow hood and stored at 4° C. Matrigel matrix is made up of several components of the extracellular matrix (ECM), including collagens, laminin and proteo-glycans.
(§8) On the day of the experiment, the coated inserts were rehydrated with 0.5 ml serum-free DMEM containing 0.1% bovine serum albumin for 1-2 hours. […] The cells were trypsinized, washed twice with serum-free DMEM containing BSA, counted and resuspended at 1×10^5 cells/ml. […] The invasive cells that migrated to the lower side of the filter were fixed, stained with Hema-3 solutions and counted under microscope. Five to 10 random fields per filter were counted to determine the mean (SE) values for the invasive fraction. The invasive fractions of cells treated with HI-131 were compared to those of DMSO treated control cells and the percent invading relative to the control was determined using the formula: [formula]
(§9) Each treatment condition was evaluated in duplicate in 3 independent experiments. […]

U373 glioblastoma cells = experiment: Cell invasion assay (Matrigel-coated Boyden chambers), U373; type: cell-based, human; conditions: through Matrigel matrix, 1 μM to 25 μM, 48 hours (FIG. 5)
Procedure: as §7, §8, §9

CCCCCCCCCCCCSC[C@H](NC(C)=O)C(=O)CCl [HI-131, N-Ac-S-dodecyl-Cys chloromethyl ketone]
IC50 (Molt-3 (T-lineage ALL)): 2300 nM | IC50 (BT-20 (breast cancer)): 10 µM | IC50 (PC-3 (prostate cancer)): 22.1 µM | IC50 (U-373 (glioblastoma)): 35.1 µM | cytotoxic effect in primary cancer cells (primary leukemia cells): dose dependent cytotoxic effect | apoptosis induction (TUNNEL/confocal), primary leukemic cells (primary leukemic cells; 50 μM, 24 hours, 2 patients): greatly induced apoptosis | fold induction at 50 µM (primary leukemic cells; Homo sapiens, 24 h, typical, vs vehicle control (FIG. 3)): ~4 | rate of apoptosis, primary leukemic cell samples (primary leukemic cells; all but one of the samples (FIG. 3)): increased dramatically | fold induction at 50 µM (MOLT-3 cells): ~20 | inhibition of invasion, MDA-MB-231 [1]: inhibited the invasion | inhibition of invasion, U373 (U373 glioblastoma cells): inhibited the invasion
